# Test results: US20160183564A1 (priority 2013, published 2016)
# Where “and” joins values, the source holds several entries; their conditions need not be identical. Identical values can stand only once.
# Key:
# [1] = system: Methanogenesis; assay type: cell-based
# [2] = system: VFA production; assay type: cell-based
Structure (SMILES),Effect on Methanogenesis (% compared to control) [1],VFA profile (as percentage of total VFA) But. [2],VFA profile (as percentage of total VFA) Prop. [2],VFA profile (as percentage of total VFA) ace. [2]
O=[N+]([O-])c1ccc(NCCO)cc1 [2-(4-Nitro-phenylamino)-ethanol],−12%,,,
"O=[N+]([O-])OCCCO [3-nitrooxy propanol, 3-Nitrooxypropanol]",−9% and −8%,6 percentage of total VFA,34 percentage of total VFA,59 percentage of total VFA
CCCNc1ccc([N+](=O)[O-])cc1 [(4-Nitro-phenyl)-propyl-amine],−11%,,,
Nc1ccc([N+](=O)[O-])cc1 [(4-nitro-phenyl)-amine],−15%,8 percentage of total VFA,33 percentage of total VFA,59 percentage of total VFA
